Source: ChEMBL document CHEMBL1201862, “PubChem BioAssay data set” (2004)
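Test compounds were applied to cells in 96-well plates for 48 hours at 5 doses. Here, GI50 denotes the concentration required for 50% inhibition of growth.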 The source made the active and inactive calls. No stated cut-off is given here; in the data, active = GI50 up to about 1.1 µM and inactive = higher.

Legend:
Test in all cases: DTP human tumour cell line panel, 48 h
786-0 = test system: 786-0
A498 = test system: A498
CAKI-1 = test system: CAKI-1
COLO 205 = test system: COLO 205
HCT-116 = test system: HCT-116
HOP-62 = test system: HOP-62
IGROV-1 = test system: IGROV-1
KM12 = test system: KM12
LOX IMVI = test system: LOX IMVI
MOLT-4 = test system: MOLT-4
OVCAR-5 = test system: OVCAR-5
SF-268 = test system: SF-268
SN12C = test system: SN12C
SNB-19 = test system: SNB-19
SR = test system: SR
SW-620 = test system: SW-620
T47D = test system: T47D
U-251 = test system: U-251
UO-31 = test system: UO-31

| Structure (SMILES) | GI50 (786-0) | GI50 (A498) | GI50 (CAKI-1) | GI50 (COLO 205) | GI50 (HCT-116) | GI50 (HOP-62) | GI50 (IGROV-1) | GI50 (KM12) | GI50 (LOX IMVI) | GI50 (MOLT-4) | GI50 (OVCAR-5) | GI50 (SF-268) | GI50 (SN12C) | GI50 (SNB-19) | GI50 (SR) | GI50 (SW-620) | GI50 (T47D) | GI50 (U-251) | GI50 (UO-31) |
| --- | --- | --- | --- | --- | --- | --- | --- | --- | --- | --- | --- | --- | --- | --- | --- | --- | --- | --- | --- |
| CCC(C)(C)/C(CC(O)(C(F)(F)F)C(F)(F)F)=N\O | > 100 µM (inactive) | > 100 µM (inactive) | > 100 µM (inactive) | > 100 µM (inactive) | > 100 µM (inactive) | > 100 µM (inactive) | > 100 µM (inactive) | > 100 µM (inactive) | > 100 µM (inactive) | > 100 µM (inactive) | > 100 µM (inactive) | > 100 µM (inactive) | > 100 µM (inactive) | > 100 µM (inactive) | > 100 µM (inactive) | > 100 µM (inactive) | > 100 µM (inactive) | > 100 µM (inactive) | > 100 µM (inactive) |
| Cc1cc(C)n(C(=O)CSc2nnc(SCC(=O)n3nc(C)cc3C)s2)n1 | > 100 µM (inactive) | > 100 µM (inactive) | > 100 µM (inactive) | > 100 µM (inactive) | > 100 µM (inactive) | 80 µM (inactive) | – | > 100 µM (inactive) | > 100 µM (inactive) | > 100 µM (inactive) | > 100 µM (inactive) | > 100 µM (inactive) | > 100 µM (inactive) | > 100 µM (inactive) | > 100 µM (inactive) | > 100 µM (inactive) | > 100 µM (inactive) | > 100 µM (inactive) | > 100 µM (inactive) |
| C=CCOc1ccccc1C1(O)c2ccccc2C2=NCCCN21 (stereo unspecified) | 47.3 µM (inactive) | > 100 µM (inactive) | > 100 µM (inactive) | 21.4 µM (inactive) | 34.2 µM (inactive) | 18.9 µM (inactive) | 16.8 µM (inactive) | 32.4 µM (inactive) | 38.1 µM (inactive) | 32.9 µM (inactive) | 32.3 µM (inactive) | > 100 µM (inactive) | 74.1 µM (inactive) | 33.5 µM (inactive) | > 100 µM (inactive) | 56.5 µM (inactive) | > 100 µM (inactive) | 46.5 µM (inactive) | > 100 µM (inactive) |
| CC(C)(C)C1(COC(=O)c2ccc(N)cc2)COC1 | 73.3 µM (inactive) | 87.3 µM (inactive) | > 100 µM (inactive) | > 100 µM (inactive) | 51.9 µM (inactive) | > 100 µM (inactive) | > 100 µM (inactive) | 58.5 µM (inactive) | > 100 µM (inactive) | 30.5 µM (inactive) | > 100 µM (inactive) | > 100 µM (inactive) | 94.6 µM (inactive) | > 100 µM (inactive) | 75.3 µM (inactive) | > 100 µM (inactive) | 24.4 µM (inactive) | 58.1 µM (inactive) | 56 µM (inactive) |
| CC(=O)c1sc(=N)n(-c2c(C)cccc2C)c1C | > 100 µM (inactive) | > 100 µM (inactive) | – | > 100 µM (inactive) | – | > 100 µM (inactive) | > 100 µM (inactive) | > 100 µM (inactive) | > 100 µM (inactive) | > 100 µM (inactive) | > 100 µM (inactive) | > 100 µM (inactive) | > 100 µM (inactive) | > 100 µM (inactive) | > 100 µM (inactive) | > 100 µM (inactive) | > 100 µM (inactive) | > 100 µM (inactive) | > 100 µM (inactive) |
| CSc1ncnc2c1cnn2Cc1cn(COCC(O)CO)nn1 (stereo unspecified) | > 100 µM (inactive) | > 100 µM (inactive) | > 100 µM (inactive) | > 100 µM (inactive) | > 100 µM (inactive) | > 100 µM (inactive) | > 100 µM (inactive) | > 100 µM (inactive) | > 100 µM (inactive) | > 100 µM (inactive) | > 100 µM (inactive) | 22.8 µM (inactive) | > 100 µM (inactive) | > 100 µM (inactive) | > 100 µM (inactive) | > 100 µM (inactive) | > 100 µM (inactive) | > 100 µM (inactive) | > 100 µM (inactive) |
| N#CC(C#N)=C1C(=Cc2ccc(OCCCCCCCCCCSSCCCCCCCCCCOc3ccc(C=C4C(=C(C#N)C#N)c5ccccc5C4=C(C#N)C#N)cc3)cc2)C(=C(C#N)C#N)c2ccccc21 | 21.8 µM (inactive) | 18.7 µM (inactive) | 24.7 µM (inactive) | – | 17.1 µM (inactive) | 22.5 µM (inactive) | 42 µM (inactive) | 25.4 µM (inactive) | 18.5 µM (inactive) | 23.6 µM (inactive) | 20.8 µM (inactive) | 19.5 µM (inactive) | – | – | 19.2 µM (inactive) | 23.3 µM (inactive) | 31.6 µM (inactive) | 19.5 µM (inactive) | 18.2 µM (inactive) |
| COc1ccccc1Cn1c2c(c3c(C(=O)NCCN(C)C)c(O)ccc31)C(=O)c1ccccc1C2=O | 0.409 µM (active) | 5.26 µM (inactive) | 2.04 µM (inactive) | 1.94 µM (inactive) | 0.759 µM (active) | 1.92 µM (inactive) | 1.68 µM (inactive) | 1.59 µM (inactive) | 1.89 µM (inactive) | 1.06 µM (active) | 1.94 µM (inactive) | 1.68 µM (inactive) | 1.94 µM (inactive) | 2.03 µM (inactive) | 0.291 µM (active) | – | 2.16 µM (inactive) | 1.91 µM (inactive) | 1.75 µM (inactive) |
| Cn1ccc(C(=O)NCCN(CCNC(=O)c2ccn(C)c(=O)c2O)CCNC(=O)c2cccc(=O)n2O)c(O)c1=O | > 100 µM (inactive) | > 100 µM (inactive) | > 100 µM (inactive) | > 100 µM (inactive) | > 100 µM (inactive) | > 100 µM (inactive) | 29.2 µM (inactive) | 56.4 µM (inactive) | > 100 µM (inactive) | – | > 100 µM (inactive) | > 100 µM (inactive) | > 100 µM (inactive) | > 100 µM (inactive) | > 100 µM (inactive) | > 100 µM (inactive) | > 100 µM (inactive) | > 100 µM (inactive) | > 100 µM (inactive) |
| O/N=C(\C=N\O)c1ccc2c(c1)Sc1ccccc1O2 | 17.5 µM (inactive) | 15.6 µM (inactive) | 23.8 µM (inactive) | 21.4 µM (inactive) | 18 µM (inactive) | 17.5 µM (inactive) | – | 33 µM (inactive) | 30.5 µM (inactive) | 5.43 µM (inactive) | 31.7 µM (inactive) | 16.8 µM (inactive) | 17.5 µM (inactive) | 24.2 µM (inactive) | 19.7 µM (inactive) | 22.9 µM (inactive) | 24.5 µM (inactive) | 26.8 µM (inactive) | 21.4 µM (inactive) |
| COC(OC)[C@@H]1OC[C@@H](O)[C@@H]1n1cnc2c(N)ncnc21 | > 100 µM (inactive) | > 100 µM (inactive) | > 100 µM (inactive) | > 100 µM (inactive) | > 100 µM (inactive) | > 100 µM (inactive) | > 100 µM (inactive) | > 100 µM (inactive) | > 100 µM (inactive) | > 100 µM (inactive) | > 100 µM (inactive) | > 100 µM (inactive) | > 100 µM (inactive) | – | > 100 µM (inactive) | > 100 µM (inactive) | > 100 µM (inactive) | > 100 µM (inactive) | > 100 µM (inactive) |
| COc1ccccc1/C=C/c1nc2ccccc2o1 | > 10 µM (inactive) | > 10 µM (inactive) | > 10 µM (inactive) | > 10 µM (inactive) | > 10 µM (inactive) | > 10 µM (inactive) | > 10 µM (inactive) | > 10 µM (inactive) | > 10 µM (inactive) | > 10 µM (inactive) | > 10 µM (inactive) | > 10 µM (inactive) | > 10 µM (inactive) | > 10 µM (inactive) | > 10 µM (inactive) | > 10 µM (inactive) | > 10 µM (inactive) | > 10 µM (inactive) | – |
| Cc1cc(N(CCC#N)CCC#N)ccc1/C=N/NC(=O)c1cc(Cl)ccc1O | > 100 µM (inactive) | > 100 µM (inactive) | > 100 µM (inactive) | > 100 µM (inactive) | > 100 µM (inactive) | 60.3 µM (inactive) | > 100 µM (inactive) | – | – | 36.9 µM (inactive) | > 100 µM (inactive) | 72.6 µM (inactive) | > 100 µM (inactive) | – | > 100 µM (inactive) | – | > 100 µM (inactive) | 49.3 µM (inactive) | – |
| CC(C)=CCc1c(OC(=O)c2c(C)cc(O)cc2O)cc(CO)c(CO)c1O | 31.4 µM (inactive) | 17.3 µM (inactive) | 5.48 µM (inactive) | 17.9 µM (inactive) | 20.9 µM (inactive) | – | 19.2 µM (inactive) | 16.2 µM (inactive) | 16.2 µM (inactive) | 16.3 µM (inactive) | 20.4 µM (inactive) | 26.7 µM (inactive) | 18.5 µM (inactive) | 8.07 µM (inactive) | 20.7 µM (inactive) | > 10 µM (inactive) | 6.85 µM (inactive) | 17.5 µM (inactive) | 12.2 µM (inactive) |
| O=C(/N=N/c1ccc([N+](=O)[O-])cc1)NNc1ccc([N+](=O)[O-])cc1 | 13.7 µM (inactive) | 4.46 µM (inactive) | 18.9 µM (inactive) | – | 11.8 µM (inactive) | 13.3 µM (inactive) | 12.8 µM (inactive) | – | 11.2 µM (inactive) | 11 µM (inactive) | 14.5 µM (inactive) | 21.8 µM (inactive) | 13.3 µM (inactive) | 27 µM (inactive) | 15.4 µM (inactive) | 18.7 µM (inactive) | 9.14 µM (inactive) | 18.9 µM (inactive) | 10.9 µM (inactive) |
